Experimental data as given in patent EP0974351A2, “Medicament for preventing and treating gastrointestinal damage” (JOUVEINAL, priority 1998, dated 2000).

Experiments:
[1] = test system: gastric damage induced by indomethacin; assay: Indomethacin (80 mg/kg) gastric damage in rats, percent of gastric area damaged by image analysis; type: in vivo, Male CD-Sprague-Dawley rats; details: indomethacin + vehicle 5.56 ± 0.48
Protocol: The following test in rats was carried out to further establish the ability of gabapentin and Pregabalin to reduce the gastrointestinal damage caused by NSAIDS.
Male CD-Sprague-Dawley rats (132-202 g) were received and housed in a room with controlled temperature, humidity, and 12-hour light/dark cycle. After a period of acclimatization of 4 to 5 days, and after a 24-hour food fasting period, animals were used for the study described below.
Gabapentin or pregabalin (CI-1008) were dissolved in water and administered orally at the following doses: 1, 10, 100, and 200 mg/kg in a volume of 1 mL. Control animals were dosed with an equal volume of vehicle (1 mL of water). Sixty minutes later, all the animals received 1 mL of a solution of 80 mg/kg indomethacin dissolved in 5% aqueous NaHCO3. Control animals received 1 mL of 5% aqueous NaHCO3 orally. Experimental groups were as follows:
Animals were sacrificed by decapitation 4 hours post-indomethacin administration. The stomach was removed and opened along the greater curvature and its image digitized and stored on an optical disk using a 486-based PC computer equipped with CUE3 system imaging analysis software (Olympus Corp., Marietta, Georgia, USA). Two 6-mm biopsies were taken from a constant region of the gastric mucosa located in each side of the glandular portion of the stomach and their PGE2 content was measured using a commercially available ELISA kit (Assay Designs Inc., Ann Arbor, Michigan, USA). The presence of gastric damage was determined using the retrieved electronic image, and the extent of damage was measured using the CUE3 imaging software. Data are expressed as a percent of gastric area damaged and the PGE2 content (pg/mL).

[2] = test system: TNBS-Induced Chronic Colonic Allodynia; assay: TNBS-induced chronic colonic allodynia in rats (colonic distension threshold); type: in vivo, Male Sprague-Dawley rats; details: for Colonic Threshold: TNBS-treated rats, control 43.39, TNBS alone printed 1781; for dose relation of the inhibition of TNBS-induced colonic allodynia: gabapentin 100, 300, 500 mg/kg sc, CI-1008 30, 60, 100, 200 mg/kg sc; for colonic inflammatory effect of TNBS (colon weight, area of hyperemia and necrosis, colonic myeloperoxidase content): sc 30 minutes before measurement, Day 7 after TNBS
Protocol: GABA analogs were evaluated in rats suffering from chronic visceral allodynia induced by trinitrobenzene sulfonic acid (TNBS).
In humans, digestive disorders are often associated with visceral pain. In these pathologies, the visceral pain threshold is decreased, indicating a visceral hypersensitivity. Consequently, the following study was designed to evaluate the effect of injection of TNBS into the colon on visceral pain threshold in an experimental model of colonic distension.
Male Sprague-Dawley rats weighing 340 to 400 g were used in the study. The animals were housed three per cage in a regulated environment (20 ± 1°C, 50 ± 5% humidity, with light 8:00 AM to 8:00 PM). Under anethesia (ketamine 80 mg/kg i.p.; acepromazin 12 mg/kg i.p.), TNBS (50 mg/kg), or saline (1.5 mL/kg) was injected into the proximal colon (1 cm from the cecum). After the surgery, animals were individually housed in the regulated environment.
A balloon catheter (5-6 cm length) was inserted through the anus into the colon and kept in position (tip of balloon 5 cm from the anus) by taping the catheter to the base of the tail. The balloon was progressively inflated by step of 5 mm Hg, from 0 to 75 mm Hg, each step of inflation lasting 30 seconds. Each cycle of colonic distension was controlled by a standard barostat. The threshold corresponds to the pressure which produced the first abdominal contraction, at which time the cycle of distension was discontinued. To determine the colonic threshold, four cycles of distension were performed on the same animal.
In a second series, a group of eight rats treated with TNBS were subjected to a colonic distension session.
In a third series, a group of eight rats treated with TNBS received a subcutaneous (sc) injection of gabapentin or CI-1008 30 minutes prior to initiation of the colonic distension cycle.
All test compounds were dissolved in saline except TNBS. TNBS was dissolved in EtOH 30% (w/v). Subcutaneous injection of vehicle was given in a volume of […].
Statistical significance between each group was determined using a one-way ANOVA followed by Student's unpaired t-test. Differences were considered statistically significant at p <0.05.
Pain threshold (pressure of distension inducing the first abdominal contraction) after distal colonic distension was determined at Day 7 in two groups of awake rats: control animals and TNBS-treated animals. […] Inflammatory parameters (colon weight, area of hyperemia and necrosis and colonic myeloperoxidase content) were measured in the proximal colon at Day 7 after TNBS treatment.
Gabapentin (100, 300, and 500 mg/kg sc) and CI-1008 (30, 60, 100, and 200 mg/kg sc) were administered 30 minutes before colonic distension and measurement of the inflammatory parameters.

[3] = 1 mg/kg orally 60 min before indomethacin 80 mg/kg, 4 hours post-indomethacin, average ± standard error
[4] = 10 mg/kg orally 60 min before indomethacin 80 mg/kg
[5] = 100 mg/kg orally 60 min before indomethacin 80 mg/kg
[6] = 200 mg/kg orally 60 min before indomethacin 80 mg/kg

SMILES | % Area Damaged [1, 3] [%] | % Area Damaged [1, 4] [%] | % Area Damaged [1, 5] [%] | % Area Damaged [1, 6] [%] | Colonic Threshold ([2]; 30 mg/kg sc 30 min before colonic distension, Day 7) [mm Hg] | Colonic Threshold ([2]; 60 mg/kg sc) [mm Hg] | allodynia induced by TNBS (in words) ([2]; 100 mg/kg sc) | Colonic Threshold ([2]; 100 mg/kg sc) [mm Hg] | Colonic Threshold ([2]; 200 mg/kg sc) [mm Hg] | dose relation of the inhibition of TNBS-induced colonic allodynia [2] | colonic inflammatory effect of TNBS (colon weight, area of hyperemia and necrosis, colonic myeloperoxidase content) [2] | Colonic Threshold ([2]; 300 mg/kg sc) [mm Hg] | effect of TNBS on colonic pain (in words) ([2]; 500 mg/kg sc) | Colonic Threshold ([2]; 500 mg/kg sc) [mm Hg]
CC(C)C[C@H](CN)CC(=O)O [CI-1008, (S)-3-(aminomethyl)-5-methylhexanoic acid] | 8.07 ± 2.19 | 4.07 ± 0.42 | 1.99± 0.25 | 0.34 ± 0.06 | 2172 | 2547 | completely suppressed | 33.13 | 40.47 | dose-related inhibition | neither gabapentin nor CI-1008 inhibited |  |  | 
NCC1(CC(=O)O)CCCCC1 [Gabapentin, 1-(aminomethyl)-cyclohexane acetic acid] | 2.99 ± 0.46 | 3.96 ± 0.35 | 1.87 ± 0.1 | 1.43 ± 0.40 |  |  |  | 22.03 |  | inhibited in a dose-related manner | neither gabapentin nor CI-1008 inhibited | 24.69 | completely blocked | 36.88
